Source: ChEMBL document CHEMBL3832555, “DailyMed|setid=f0492050-a966-41be-80b5-a58da7ba2bcf | PERINDOPRIL ERBUMINE-perindopril erbumine tablet|Lannett Company, Inc”

Tested on: Homo sapiens
Test: Evaluation of pharmacokinetic parameters for PERINDOPRIL and its active metabolite, PERINDOPRILAT,following single oral administration of PERINDOPRIL ERBUMINE tablets
Type: ADME, organism-based
Conditions: in vivo, dosed compound id 11, dosed compound name PERINDOPRIL ERBUMINE, tissue Plasma

F [%]	Protein binding [%]	Tmax [h]	t1/2 [h]	t1/2-elimination [h]	Compound
25	10 to 20	3 to 7	3 to 10	30 to 120	CCC[C@H](N[C@@H](C)C(=O)N1[C@H](C(=O)O)C[C@@H]2CCCC[C@@H]21)C(=O)O [PERINDOPRILAT]
75	60	1		0.8 to 1	CC(C)(C)N.CCC[C@H](N[C@@H](C)C(=O)N1[C@H](C(=O)O)C[C@@H]2CCCC[C@@H]21)C(=O)OCC [PERINDOPRIL ERBUMINE]
